These results are taken from PMC12467740, “Synthesis, Characterization, and Screening Anticancer—Antibiofilm Activities of Theophylline Derivatives Containing CF3/OCF3 Moiety” (Biology, 2025).

SMILES strings stand for the structures.

Test [1] has as its system BEAS-2B cells. The test is described as follows: MTT cell viability assay, BEAS-2B. The test is classed as cell-based. The settings on record: Homo sapiens, 48 h, mean ± SD (n = 3). How it is done: (§1) The anticancer potential of substituted theophylline derivatives was investigated using human lung carcinoma (A549, CCL-185) and cervical cancer (HeLa, CCL-2) cell lines obtained from the American Type Culture Collection (ATCC). To evaluate the selectivity of the tested compounds, cytotoxicity was also assessed in a healthy human bronchial epithelial cell line (BEAS-2B, ATCC CRL-9609). Cells were maintained in DMEM (Euroclone S.p.A., Pero, Italy supplemented with 10% fetal bovine serum (Sigma-Aldrich, St. Louis, MO, USA) and 1% penicillin–streptomycin (1%, Capricorn Scientific GmbH, Ebsdorfergrund, Germany at 37 °C in a humidified atmosphere containing 5% CO2. The theophylline-derived compounds (1a–1e) were dissolved in DMSO to prepare 100 mM stock solutions, which were then diluted with DMEM to obtain final working concentrations ranging from 3.125 µM to 100 µM. To evaluate cell viability, the MTT colorimetric assay was employed. Upon reaching logarithmic growth, A549, HeLa and BEAS-2B cells were seeded at a density of 7000 cells per well in 96-well microplates and allowed to attach for 24 h. Following this, cells were treated with different concentrations of the compounds and incubated for 48 h. After treatment, 100 µL of fresh medium and 20 µL of MTT reagent (5 mg/mL, Bio Basic Inc., Markham, ON, Canada) were added to each well, and cells were incubated for an additional 3 h. The resulting formazan crystals were solubilized with DMSO. Cell viability was calculated as the percentage of absorbance relative to untreated controls, and IC50 values were determined by nonlinear regression analysis using GraphPad Prism software, version 8.0 (GraphPad Software, San Diego, CA, USA. All experiments were performed in at least three independent replicates, and results are reported as mean ± SD. The percentage of inhibition was calculated based on the reduction in metabolic activity of the cells following compound treatment, as assessed by the MTT assay. The absorbance was measured at 570 nm using a microplate reader. The inhibition (%) was calculated using the following formula:Inhibition %=[1 − (Asample − Ablank)/[…]] × 100 To assess the tumor selectivity of the tested theophylline derivatives, the selectivity index (SI) was calculated for each compound. SI is defined as the ratio of the IC50 value in healthy (non-tumorigenic) cells to the IC50 value in cancer cells. In this study, IC50 values were determined for BEAS-2B (non-tumorigenic human bronchial epithelial cells) as a healthy control and for A549 (lung adenocarcinoma) and HeLa (cervical carcinoma) as tumor models. The SI was calculated according to the following equation:SI = [IC50, healthy/IC50, cancer]

For test [2], the system named is A549 cells. The test is described as follows: MTT cell viability assay, A549. Format: cell-based, human. The settings on record: for IC50: MTT, 48 h, mean ± SD (n = 3); for SI (A549): ratio of IC50 in BEAS-2B cells to IC50 in A549 cells. The method, then:
as §1

Test [3] relates to HeLa cells. Kind of test: MTT cell viability assay, HeLa. The settings on record: for IC50: 48 h, MTT, mean ± SD (n = 3); for SI (HeLa): ratio of IC50 in BEAS-2B cells to IC50 in HeLa cells. The test is classed as cell-based, human. The method, then:
as §1

For test [4], the system named is Escherichia coli. The test is described as follows: Well plate biofilm formation assay (crystal violet). Format: cell-based. The settings on record: over the concentration range given per compound (Table 4). The method, then: (§2) The well plate assay was utilized to test the effectiveness of compounds in inhibiting biofilms made by microorganisms. An amount of 100 μL of Brucella broth (Remel, Lenexa, KS, USA) containing 1% and 20% glucose (Biolife, Milan, Italy), were dispensed into the test wells. In the next step, 100 μL of compounds ranging from 0.244 to 1000 μg/mL were poured into the wells. […] Then, 0.5 McFarland standard in physiological saline from each microorganism strain were prepared and 20 μL of the prepared suspension was added to the wells. A column of the microplate containing 100 μL Brucella broth served as a negative control and another column of the microplate containing 100 μL Brucella with 20 μL of each microorganism added served as a growth control. As positive controls, ciprofloxacin was applied against bacterial strains at a concentration range of 0.03125-64 μg/mL, and fluconazole was used against Candida albicans at a concentration range of 0.3125-640 μg/mL. Plates were left to incubate at 36.5 °C for a day. The plates were emptied and then washed three times with 300 μL of deionized water. The wells were left to dry for half an hour. The next step was staining with 0.1% (w/v) violet dye ([…]), cleaning three times with deionized water, and drying at room temperature. The crystal violet adhering to the wall of the wells was dissolved with 95% ethanol, and the optical density was measured at 570 nm. The test was run two times, and the mean value was calculated. Biofilm preventing (%) = {(ODb - ODc)/ODb} × 100.

The test system of test [5] is Pseudomonas aeruginosa. The test is described as above. Format: cell-based. The settings on record: over the concentration range given per compound (Table 4). The method, then: as §2
For test [6], the system named is Staphylococcus aureus. The test is described as above. The settings on record: over the concentration range given per compound (Table 4); 1c and 1e at 1000 µg/mL. The test is classed as cell-based. How it is done: as §2
Test [7] relates to Candida albicans. The test is described as above. Format: cell-based. The settings on record: over the concentration range given per compound (Table 4). The method, then:
as §2

Test [8] relates to Enterococcus faecalis. The description is as above. Format: cell-based. The settings on record: over the concentration range given per compound (Table 4). How it is done: as §2

`Cn1c(=O)c2c(ncn2Cc2cc(C(F)(F)F)cc(C(F)(F)F)c2)n(C)c1=O` [Compound 1d, 1,3-Dimethyl-7-(3,5-bis(trifluoromethyl)benzyl)-3,7-dihydro-1H-purine-2,6-dione]: the IC50 is 150 ± 4 µM in test [1]; 29.1 ± 0.5 µM in test [2] (Homo sapiens, A549, 48 h); 31.4 ± 1 µM in test [2]; 32.4 ± 0.85 µM in test [3] (Homo sapiens, HeLa); 34.5 ± 1 µM in test [3]. In addition, the “SI (A549)” value in test [2] came to 4.78 ± 0.14. Besides, the “SI (HeLa)” value in test [3] was 4.35 ± 0.13. In addition, the “Antibiofilm activity Escherichia coli” value in test [4] is “did not show antibiofilm activity and –”. The “Antibiofilm activity Pseudomonas aeruginosa” value in test [5] was “did not show antibiofilm activity and –”. Moreover, the “Antibiofilm activity Staphylococcus aureus” value in test [6] was “did not show antibiofilm activity and –”. Further, the “Antibiofilm activity Candida albicans” value in test [7] is 1.8–11.8%. In addition, in test [8], the “Antibiofilm activity Enterococcus faecalis” value is recorded as 0.7–23.9%.

Consider `Cn1c(=O)c2c(ncn2Cc2ccc(C(F)(F)F)cc2)n(C)c1=O` [Compound 1c, 1,3-Dimethyl-7-(4-(trifluoromethyl)benzyl)-3,7-dihydro-1H-purine-2,6-dione], for which the 50% inhibitory concentration (IC50) in test [1] came to 90 ± 3 µM; in test [2] (Homo sapiens, A549, 48 h), 13.6 ± 0.9 µM; in test [2], 15.7 ± 0.6 µM; in test [3] (Homo sapiens, HeLa), 14.7 ± 0.7 µM; in test [3], 11.5 ± 1.2 µM. Also, the “SI (A549)” value in test [2] turned out to be 5.73 ± 0.15. In addition, the “SI (HeLa)” value in test [3] came out at 7.83 ± 0.22. The “Antibiofilm activity Escherichia coli” value in test [4] was “did not show antibiofilm activity and –”. Further, the “Antibiofilm activity Pseudomonas aeruginosa” value in test [5] is “did not show antibiofilm activity and –”. Further, in test [6], the “Antibiofilm activity Staphylococcus aureus” value turned out to be 20.1%. The “Antibiofilm activity Candida albicans” value in test [7] is given as 0.9–12.3%. For the same compound, the “Antibiofilm activity Enterococcus faecalis” value in test [8] was 0.7–16.0%.

As for `Cn1c(=O)c2c(ncn2Cc2cccc(C(F)(F)F)c2)n(C)c1=O` [Compound 1b, 1,3-Dimethyl-7-(3-(trifluoromethyl)benzyl)-3,7-dihydro-1H-purine-2,6-dione], the half-maximal inhibitory concentration (IC50) in test [1] was 120 ± 3 µM; in test [2] (Homo sapiens, A549, 48 h), 12.4 ± 0.7 µM; in test [2], 13.6 ± 0.9 µM; in test [3] (Homo sapiens, HeLa), 10.8 ± 0.8 µM; in test [3], 14.7 ± 0.7 µM. Moreover, the “SI (A549)” value in test [2] is 8.82 ± 0.20. Also, the “SI (HeLa)” value in test [3] is listed as 8.16 ± 0.16. Also, the “Antibiofilm activity Escherichia coli” value in test [4] was “did not show antibiofilm activity and –”. In addition, the “Antibiofilm activity Pseudomonas aeruginosa” value in test [5] was “did not show antibiofilm activity and –”. In addition, the “Antibiofilm activity Staphylococcus aureus” value in test [6] is “did not show antibiofilm activity and –”. In test [7], the “Antibiofilm activity Candida albicans” value was 0.8–23.9%. In addition, the “Antibiofilm activity Enterococcus faecalis” value in test [8] is on record as 5.7–23.1%.

For the compound `Cn1c(=O)c2c(ncn2Cc2ccc(OC(F)(F)F)cc2)n(C)c1=O` [Compound 1e, 1,3-Dimethyl-7-(4-(trifluoromethoxy)benzyl)-3,7-dihydro-1H-purine-2,6-dione], the concentration for half-maximal inhibition (IC50) came to 140 ± 3 µM in test [1]; 31.4 ± 1 µM in test [2] (Homo sapiens, A549, 48 h); 29.1 ± 0.5 µM in test [2]; 34.5 ± 1.25 µM in test [3] (Homo sapiens, HeLa); 32.4 ± 0.8 µM in test [3]. For the same compound, the “SI (A549)” value in test [2] is listed as 4.81 ± 0.09. Further, the “SI (HeLa)” value in test [3] turned out to be 4.32 ± 0.11. Moreover, the “Antibiofilm activity Escherichia coli” value in test [4] is “did not show antibiofilm activity and –”. Moreover, in test [5], the “Antibiofilm activity Pseudomonas aeruginosa” value is “did not show antibiofilm activity and –”. Also, the “Antibiofilm activity Staphylococcus aureus” value in test [6] is 13.6%. Further, the “Antibiofilm activity Candida albicans” value in test [7] is reported as 0.4–23.4%. In test [8], the “Antibiofilm activity Enterococcus faecalis” value is given as 5.1–13.9%.
